Laboratory results reported in paper PMC5833756, “A novel ruthenium complex with xanthoxylin induces S-phase arrest and causes ERK1/2-mediated apoptosis in HepG2 cells through a p53-independent pathway” (Cell Death & Disease, 2018).
Like-named read-outs stand apart in the source and are kept apart here.

What was measured:
[1] = system: HCT116; type: cell-based, human; conditions: HCT116 (human colon carcinoma), 72 h
[2] = system: HT-29; type: cell-based, human; conditions: HT-29 (human colon adenocarcinoma), 72 h
[3] = system: HepG2; type: cell-based, human; conditions: HepG2 (human hepatocellular carcinoma), monolayer, 72 h
[4] = system: SCC-9; type: cell-based, human; conditions: SCC-9 (human oral squamous cell carcinoma), 72 h
[5] = system: SCC-15; type: cell-based, human; conditions: SCC-15 (human oral squamous cell carcinoma), 72 h
[6] = system: SCC-25; type: cell-based, human; conditions: SCC-25 (human oral squamous cell carcinoma), 72 h
[7] = system: ACP-02; type: cell-based, human
[8] = system: ACP-03; type: cell-based, human
[9] = system: HL-60; type: cell-based, human; conditions: HL-60 (human promyelocytic leukemia), 72 h
[10] = system: K-562; type: cell-based, human; conditions: K-562 (human chronic myelogenous leukemia), 72 h
[11] = system: B16-F10; type: cell-based, mouse; conditions: B16-F10 (murine melanoma), 72 h
[12] = system: MRC-5; type: cell-based; conditions: MRC-5 (human lung fibroblast, non-cancer), 72 h
[13] = system: HaCAT; type: cell-based; conditions: HaCAT (human keratinocyte, non-cancer), 72 h
[14] = system: WT SV40 MEF; type: cell-based, mouse; conditions: 72 h
[15] = system: BAD KO SV40 MEF; type: cell-based, mouse; conditions: 72 h
[16] = system: HepG2 cells; assay: Trypan blue exclusion assay; type: cell-based, human
[17] = system: calf thymus DNA; assay: DNA intercalation assay (ethidium bromide displacement); type: binding; conditions: 20 μM, cell-free, 15 min
Description: DNA intercalation was assessed by examining the ability of the complex to displace ethidium bromide from ctDNA (Sigma-Aldrich)[36]. […] After a 15 min of incubation at room temperature, fluorescence was measured using the excitation and emission wavelengths of 320 nm and 600 nm, respectively, using the Spectramax Microplate Reader (Molecular Devices).

[18] = system: HepG2 cells; type: cell-based, human
Description: Briefly, the cells were harvested in a permeabilization solution containing 0.1% Triton X-100, 2 µg/mL PI, 0.1% sodium citrate and 100 µg/mL RNAse (all from Sigma-Aldrich) and incubated in the dark for 15 min at room temperature. Finally, cell fluorescence was measured by flow cytometry with a BD LSRFortessa cytometer using BD FACSDiva Software (BD Biosciences) and FlowJo Software 10 (FlowJo Lcc; Ashland, OR, USA). Ten thousand events were evaluated per experiment, and cellular debris was omitted from the analysis.

[19] = for Initial body weight: before treatment; for Final body weight / Survival / Differential leukocytes: Eosinophils / Differential leukocytes: Lymphocytes / Differential leukocytes: Monocytes / Differential leukocytes: Neutrophils / Erythrocytes / Total leukocytes: i.p. 21 days; for Differential leukocytes: Eosinophils / Differential leukocytes: Lymphocytes / Differential leukocytes: Monocytes / Differential leukocytes: Neutrophils / Erythrocytes / Total leukocytes: peripheral blood
Description: HepG2 cells (1 × 10^7 cells per 500 µL) were implanted subcutaneously into the left front armpit of the mice. […] The treatments were initiated one day after the tumor cell injection. The animals were treated intraperitoneally (200 µL per animal) once daily for 21 consecutive days. On the 22nd day, the animals were anesthetized, and peripheral blood samples were collected from the brachial artery. Animals were euthanized by anesthetic overdose, and tumors were excised and weighed.
To assess the toxicological effects, mice were weighed at the beginning and at the end of the experiment. […] Hematological analysis was performed using light microscopy. Livers, kidneys, lungs and hearts were removed, weighed and examined for any signs of gross lesions, color changes and/or hemorrhages. After gross macroscopic examination, the tumors, livers, kidneys, lungs and hearts were fixed in 4% formalin buffer and embedded in paraffin. Tissue sections were stained with hematoxylin and eosin chromogens, and a pathologist performed the analysis under a light microscope.

[20] = HepG2, 12 h, DOX 2 µM, OXA 10 µM, RCX 12 µM
[21] = HepG2, 24 h, DOX 2 µM, OXA 10 µM, RCX 12 µM
[22] = HepG2, 48 h, DOX 2 µM, OXA 10 µM, RCX 12 µM
[23] = HepG2, 72 h, DOX 2 µM, OXA 10 µM, RCX 12 µM
[24] = DOX 0.3 mg/kg, 5-FU 10 mg/kg, RCX 2.5 mg/kg
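Throughout, for Final body weight: mice bearing subcutaneous HepG2 xenografts, given intraperitoneal doses once daily for 21 days, weighed at start and end, blood leukocytes counted by light microscopy on day 22.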
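Throughout, for Initial body weight: mice bearing subcutaneous HepG2 xenografts, given intraperitoneal doses once daily for 21 days, weighed at start and end, blood leukocytes counted by light microscopy on day 22.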
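Throughout, for liver histopathological characteristics: mice bearing subcutaneous HepG2 xenografts, given intraperitoneal doses once daily for 21 days, weighed at start and end, blood leukocytes counted by light microscopy on day 22.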
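Throughout, for lung histopathological characteristics: mice bearing subcutaneous HepG2 xenografts, given intraperitoneal doses once daily for 21 days, weighed at start and end, blood leukocytes counted by light microscopy on day 22.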

Q: Which results are given for `COc1cc([O-])c(C(C)=O)c(OC)c1.F[P-](F)(F)(F)(F)F.[Ru+2].c1cnc2c(c1)ccc1cccnc12.c1cnc2c(c1)ccc1cccnc12` [RCX, cis-[Ru(phen)2(xant)](PF6)]?
A: IC50 [1]: 1.6 µM; IC50 [2]: 3.4 µM; IC50 [3]: 13.5 µM; IC50 [4]: 3.4 µM; IC50 [5]: 6.8 µM; IC50 [6]: 6.5 µM; selectivity index (SI) [7]: 0.3; IC50 ([7]; ACP-02 (human gastric adenocarcinoma), 72 h): 18.3 µM; selectivity index (SI) [8]: 0.2; IC50 ([8]; ACP-03 (human gastric adenocarcinoma), 72 h): 26 µM; IC50 [9]: 6.6 µM; IC50 [10]: 6.1 µM; IC50 [11]: 12.4 µM; IC50 [12]: 21.3 µM; IC50 [13]: 6.1 µM; IC50 [14]: 3.9 µM; IC50 [15]: 4.1 µM; reduction of the number of viable cells ([16]; HepG2, 12 μM, 24 h): 57.2%; reduction of the number of viable cells ([16]; HepG2, 12 μM, 48 h): 74.6%; reduction of the number of viable cells ([16]; HepG2, 12 μM, 72 h): 73.8%; reduction of the number of viable cells ([16]; HepG2, 24 μM, 24 h): 62.2%; reduction of the number of viable cells ([16]; HepG2, 24 μM, 48 h): 73.9%; reduction of the number of viable cells ([16]; HepG2, 24 μM, 72 h): 82.1%; change in the number of viable cells ([16]; HepG2, 12 and 24 μM, 12 h): No significant decrease in the number of viable cells; displacement of ethidium bromide from ctDNA (fluorescence) [17]: decreased the ethidium bromide fluorescence; DNA content G0/G1 [18, 20]: 66.4 ± 4.0%; DNA content G2/M [18, 20]: 13.3 ± 1.1%; DNA content S [18, 20]: 18.0 ± 7.4%; DNA content Sub-G0/G1 [18, 20]: 9.6 ± 1.1 %; DNA content G0/G1 ([18]; HepG2, 12 h, RCX 24 µM): 68.9 ± 2.2%; DNA content G2/M ([18]; HepG2, 12 h, RCX 24 µM): 13.9 ± 1.6%; DNA content S ([18]; HepG2, 12 h, RCX 24 µM): 8.6 ± 4.5%; DNA content Sub-G0/G1 ([18]; HepG2, 12 h, RCX 24 µM): 13.0 ± 2.5 %; DNA content G0/G1 [18, 21]: 38.2 ± 1.2 %; DNA content G2/M [18, 21]: 17.6 ± 0.9%; DNA content S [18, 21]: 22.4 ± 0.7 %; DNA content Sub-G0/G1 [18, 21]: 15.3 ± 0.6 %; DNA content G0/G1 ([18]; HepG2, 24 h, RCX 24 µM): 29.9 ± 2.7 %; DNA content G2/M ([18]; HepG2, 24 h, RCX 24 µM): 13.0 ± 1.3%; DNA content S ([18]; HepG2, 24 h, RCX 24 µM): 13.0 ± 1.6%; DNA content Sub-G0/G1 ([18]; HepG2, 24 h, RCX 24 µM): 34.7 ± 1.4 %; DNA content G0/G1 [18, 22]: 23.3 ± 2.0 %; DNA content G2/M [18, 22]: 9.0 ± 0.8 %; DNA content S [18, 22]: 11.5 ± 2.7%; DNA content Sub-G0/G1 [18, 22]: 44.1 ± 6.3 %; DNA content G0/G1 ([18]; HepG2, 48 h, RCX 24 µM): 18.9 ± 3.0 %; DNA content G2/M ([18]; HepG2, 48 h, RCX 24 µM): 6.5 ± 0.7 %; DNA content S ([18]; HepG2, 48 h, RCX 24 µM): 10.3 ± 1.3%; DNA content Sub-G0/G1 ([18]; HepG2, 48 h, RCX 24 µM): 62.6 ± 3.4 %; DNA content G0/G1 [18, 23]: 23.6 ± 1.9 %; DNA content G2/M [18, 23]: 11.1 ± 1.8%; DNA content S [18, 23]: 13.2 ± 0.8%; DNA content Sub-G0/G1 [18, 23]: 42.6 ± 6.8 %; DNA content G0/G1 ([18]; HepG2, 72 h, RCX 24 µM): 19.7 ± 3.3 %; DNA content G2/M ([18]; HepG2, 72 h, RCX 24 µM): 6.7 ± 0.7%; DNA content S ([18]; HepG2, 72 h, RCX 24 µM): 4.9 ± 1.1 %; DNA content Sub-G0/G1 ([18]; HepG2, 72 h, RCX 24 µM): 68.2 ± 3.7 %; lung histopathological characteristics ([19]; atelectasis, hemorrhage, inflammation, congestion, doxorubicin 0.3 mg/kg, RCX both doses, 21 days): more pronounced in the doxorubicin and RCX (both doses) groups than in the other groups; Initial body weight ([19]; DOX 0.3 mg/kg, 5-FU 10 mg/kg, RCX 2.5 mg/kg groups): 22.2 ± 0.5 g; Initial body weight ([19]; RCX 5 mg/kg group): 21.1 ± 0.4 g; liver histopathological characteristics ([19]; hydropic degeneration, dilatation, necrosis, inflammation, RCX 2.5 and 5 mg/kg, 21 days): more pronounced in the RCX groups than in the other groups; Final body weight [19, 24]: 20.6 ± 0.4 g; Survival [19, 24]: 14/14; Final body weight ([19]; RCX 5 mg/kg): 17.0 ± 0.4 g; Survival ([19]; RCX 5 mg/kg): 7/14; Differential leukocytes: Eosinophils [19, 24]: 1.0%; Differential leukocytes: Lymphocytes [19, 24]: 49.3%; Differential leukocytes: Monocytes [19, 24]: 1.0%; Differential leukocytes: Neutrophils [19, 24]: 48.3%; Erythrocytes [19, 24]: 9.0 ± 0.6 10^6cells/μL; Total leukocytes [19, 24]: 3.1 ± 0.5 10^3cells/μL; Differential leukocytes: Eosinophils ([19]; RCX 5 mg/kg): 1.0%; Differential leukocytes: Lymphocytes ([19]; RCX 5 mg/kg): 49.0%; Differential leukocytes: Monocytes ([19]; RCX 5 mg/kg): 1.0%; Differential leukocytes: Neutrophils ([19]; RCX 5 mg/kg): 49.0%; Erythrocytes ([19]; RCX 5 mg/kg): 8.3 ± 0.3 10^6cells/μL; Total leukocytes ([19]; RCX 5 mg/kg): 2.6 ± 0.2 10^3cells/μL
